Test results: paper PMC5647378, “Structural and Mechanistic Analysis of Drosophila melanogaster Agmatine N-Acetyltransferase, an Enzyme that Catalyzes the Formation of N-Acetylagmatine” (Scientific Reports, 2017)
Positions count from the first letter of the chain named. Where “and” joins values, the source holds several entries; their conditions need not be identical. Identical values can stand only once. Like-named read-outs stand apart in the source and are kept apart here. One block for each compound: values may come before it.

Experiments:
[1] = biological target: T1, Drosophila melanogaster AgmNAT (CG15766), wild-type (Drosophila melanogaster, UniProt Q9W469); test: AgmNAT steady-state kinetics, coenzyme A release with Ellman's reagent (DTNB); format: biochemical
Protocol: (§1) Steady-state kinetic constants for AgmNAT were determined by measuring the rate of coenzyme A release using Ellman’s reagent (DTNB) at 412 nm (molar absorptivity = 13,600 M^−1 cm^−1)[15]–[17]. […] Initial velocities were measured using a Cary 300 Bio UV-Visible spectrophotometer at 22 °C. Acyl-CoA kinetic constants were evaluated by holding the concentration of agmatine at a constant saturating concentration (5 mM). […] The apparent kinetic constants were determined by fitting the resulting data to equation 1 using SigmaPlot 12.0, where vo is the initial velocity, Vmax,app is the apparent maximal velocity, [S] is the substrate concentration, and Km,app is the apparent Michaelis constant. Each assay was performed in triplicate and the uncertainty for the kcat,app and (kcat/Km)app values were calculated using equation 2, where σ is the standard error.1 vo=Vmax,app[S]/Km,app+[S] 2 σ(x/y)=x/y(σx/x)^2+(σy/y)^2

AgmNAT E34A mutant = biological target: T2, AgmNAT E34A mutant (Drosophila melanogaster, UniProt Q9W469, E34A); test: Steady-state kinetics of AgmNAT site-directed mutant E34A; format: biochemical; details: for (kcat/Km)app–mutant/(kcat/Km)app–wild–type×100: E34A
T2 sequence (Q9W469 1-216 E34A): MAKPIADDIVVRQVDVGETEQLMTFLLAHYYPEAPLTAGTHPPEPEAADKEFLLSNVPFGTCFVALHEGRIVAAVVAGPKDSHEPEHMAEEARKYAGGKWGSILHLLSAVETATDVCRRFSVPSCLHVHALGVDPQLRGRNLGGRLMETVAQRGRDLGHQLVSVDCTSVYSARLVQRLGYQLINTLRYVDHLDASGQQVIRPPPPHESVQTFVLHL
Protocol: (§2) Site-directed mutants of AgmNAT were constructed by the overlap extension method. Using the primers shown in Table S1, each mutant was amplified using pfuUltra High-Fidelity DNA polymerase with the following PCR conditions: initial denaturing step of 95 °C for 2 min, then 30 cycles of 95 °C for 30 s; 60 °C annealing temperature for 30 s; 72 °C extension step for 1 min; then a final extension step of 72 °C for 10 min. Following the amplification of the AgmNAT site-directed mutant, the sub-cloning, expression, and purification procedures are the same as discussed for the wild-type enzyme.
as §1

AgmNAT P35A mutant = biological target: T3, AgmNAT P35A mutant (Drosophila melanogaster, UniProt Q9W469, P35A); test: Steady-state kinetics of AgmNAT site-directed mutant P35A; format: biochemical
T3 sequence (Q9W469 1-216 P35A): T2 sequence (Q9W469 1-216 E34A) with A34E, P35A
Protocol: as §2
as §1, with “Each assay was performed in triplicate and the uncertainty for the kcat,app and (kcat/Km)app values were calculated using equation 2, where σ is the standard error.1 vo=Vmax,app[S]/Km,app+[S] 2 σ(x/y)=x/y(σx/x)^2+(σy/y)^2” left out

AgmNAT S171A mutant = biological target: T4, AgmNAT S171A mutant (Drosophila melanogaster, UniProt Q9W469, S171A); test: Steady-state kinetics of AgmNAT site-directed mutant S171A; format: biochemical; details: for (kcat/Km)app–mutant/(kcat/Km)app–wild–type×100: S171A
T4 sequence (Q9W469 1-216 S171A): T2 sequence (Q9W469 1-216 E34A) with A34E, S171A
Protocol: as §2, §1

AgmNAT H206A mutant = biological target: T5, AgmNAT H206A mutant (Drosophila melanogaster, UniProt Q9W469, H206A); test: Steady-state kinetics of AgmNAT site-directed mutant H206A; format: biochemical; details: for increase of Km,app versus wild-type: H206A mutant; for (kcat/Km)app–mutant/(kcat/Km)app–wild–type×100: H206A
T5 sequence (Q9W469 1-216 H206A): T2 sequence (Q9W469 1-216 E34A) with A34E, H206A
Protocol: as §2, §1

Glu34 = Glu34 (UniProt position 34, HYYPEEPLTAG); test: kinetics; details: 22 °C; MES (pH 6.5 and 7.0), Tris (pH 7.0-9.0), AmeP (pH 9.0 and 9.5). Concentrations for the pH series not stated (standard assay is 300 mM Tris with 150 µM DTNB).; Steady-state turnover; acetyl-CoA varied, agmatine as co-substrate (5 mM saturating in the standard assay); wild-type enzyme, triplicate
[2] = biological target: T1, Drosophila melanogaster AgmNAT (CG15766), wild-type; test: AgmNAT dead-end and product inhibition analysis; format: biochemical
Protocol: Initial velocities were determined by varying the concentration of one substrate, while holding the other substrate at a fixed concentration. […] The resulting initial velocity data was fit to equation 3 for an ordered Bi-Bi mechanism and equation 4 for a ping pong mechanism using IGOR Pro 6.34 A, where vo is the initial velocity, Vmax is the maximal velocity, Kia is the dissociation constant for substrate A, Kb is the Michaelis constant for substrate B, Ka is the Michaelis constant for substrate A, [A] is the concentration of substrate A, and [B] is the concentration of substrate B.3 vo=Vmax[A][B]/KiaKb+Ka[B]+Kb[A]+[A][B] 4 vo=Vmax[A][B]/Ka[B]+Kb[A]+[A][B]
Inhibition experiments by either substrate analogs or N-acetylagamatine were used to discriminate between an ordered, random sequential, or ping pong kinetic mechanism. […] Initial velocity patterns were generated by varying the concentration of one substrate, holding the other substrate concentration at its apparent Km, and changing the concentration of inhibitor for each data set in triplicate. The resulting data was fit to equations 5–7, for competitive, noncompetitive, and uncompetitive inhibition respectively using SigmaPlot 12.0. For […], vo is the initial velocity, Vmax,app is the apparent maximal velocity, Km,app is the apparent Michaelis constant, [S] is the substrate concentration, [I] is the inhibitor concentration, and Ki is the inhibition constant.5 vo=Vmax,app[S]/Km,app(1+[I]/Ki)+[S] 6 vo=Vmax,app[S]/Km,app(1+[I]/Ki)+[S](1+[I]/Ki) 7 vo=Vmax,app[S]/Km,app+[S](1+[I]/Ki)

[3] = biological target: T1, Drosophila melanogaster AgmNAT (CG15766), wild-type; test: AgmNAT dead-end and product inhibition analysis; format: biochemical; details: inhibitor at 10 mM

T1 sequence (Q9W469 entry or part of it): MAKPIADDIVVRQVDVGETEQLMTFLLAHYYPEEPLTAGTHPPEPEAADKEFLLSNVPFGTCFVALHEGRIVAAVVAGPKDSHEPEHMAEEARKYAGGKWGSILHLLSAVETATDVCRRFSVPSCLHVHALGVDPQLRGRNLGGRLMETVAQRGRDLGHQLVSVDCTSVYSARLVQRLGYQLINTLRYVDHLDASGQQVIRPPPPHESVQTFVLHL

Compound: CC(=O)SCCNC(=O)CCNC(=O)[C@H](O)C(C)(C)COP(=O)(O)OP(=O)(O)OC[C@H]1O[C@@H](n2cnc3c(N)ncnc32)[C@H](O)[C@@H]1OP(=O)(O)O [Acetyl-CoA]
- (kcat/Km)app–mutant/(kcat/Km)app–wild–type×100 ([1]; Wild-type, acetyl-CoA varied): 100%
- kcat,app ([1]; Wild-type, acetyl-CoA varied, saturating agmatine, pH 8.5): 23 ± 1 s⁻¹
- kcat,app ([1]; acyl-CoA varied, 5 mM agmatine, 300 mM Tris-HCl pH 8.5, 150 µM DTNB): 23 ± 1 s⁻¹
- Km ([1]; acyl-CoA varied, 5 mM agmatine, 300 mM Tris-HCl pH 8.5, 150 µM DTNB, read-out: Km,app): 100 µM
- decrease of Km,app versus wildtype (AgmNAT E34A mutant; E34A mutant, acetyl-CoA): 6 fold
- (kcat/Km)app–mutant/(kcat/Km)app–wild–type×100 (AgmNAT E34A mutant; acetyl-CoA varied): 0.27%
- (kcat/Km)app–mutant/(kcat/Km)app–wild–type×100 (AgmNAT P35A mutant; acetyl-CoA varied): 0.86%
- change (decrease) of Km,app versus wildtype (AgmNAT S171A mutant; S171A mutant, acetyl-CoA): 3- to 4 fold
- (kcat/Km)app–mutant/(kcat/Km)app–wild–type×100 (AgmNAT S171A mutant; acetyl-CoA varied): 34%
- increase of Km,app versus wild-type (AgmNAT H206A mutant; acetyl-CoA): 2.3 fold
- (kcat/Km)app–mutant/(kcat/Km)app–wild–type×100 (AgmNAT H206A mutant; acetyl-CoA varied): 2.3%

Compound: Agmatine N-acetyltransferase (AgmNAT; formerly arylalkylamine N-acetyltransferase-like 8, AANATL8) (Drosophila melanogaster)
- pKa (Glu34): 7.7 ± 0.1 and 7.3 ± 0.2 and ~7.5

- acceptance as amine substrate ([1]; amine substrate screen with acetyl-CoA): not AgmNAT substrates
- Ki ([2]; varied substrate acetyl-CoA, constant agmatine (0.3 mM), listed as arginine methyl ester, read-out: Ki,i): ≥ 1000 µM
- Ki ([2]; varied substrate acetyl-CoA, constant agmatine (0.3 mM), read-out: Ki,i): 2900 ± 100 µM
- Ki ([2]; varied substrate agmatine, constant acetyl-CoA (0.1 mM; 104 µM), listed as arginine methyl ester, read-out: Ki,s): ≥ 1000 µM
- Ki ([2]; varied substrate agmatine, constant acetyl-CoA (0.1 mM; 104 µM), read-out: Ki,s): 1500 ± 100 µM
- type of inhibition plot (in words) ([2]; versus acetyl-CoA): uncompetitive
- type of inhibition plot (in words) ([2]; versus agmatine): competitive
- decrease of the rate of N-acetylagmatine formation from acetyl-CoA and agmatine [3]: ~ 50%
Compound: COC(=O)[C@@H](N)CCCN=C(N)N [Arginine methyl ester, L-arginine methyl ester]

Compound: NCCCCN=C(N)N [Agmatine, (4-aminobutyl)guanidine]
- (kcat/Km)app–mutant/(kcat/Km)app–wild–type×100 ([1]; Wild-type, agmatine varied): 100%
- increase of Km,app versus wildtype (AgmNAT E34A mutant; E34A mutant, agmatine): 20 fold
- (kcat/Km)app–mutant/(kcat/Km)app–wild–type×100 (AgmNAT E34A mutant; agmatine varied): 0.0038%
- (kcat/Km)app–mutant/(kcat/Km)app–wild–type×100 (AgmNAT P35A mutant; agmatine varied): 3.2%
- change (increase) of Km,app versus wildtype (AgmNAT S171A mutant; S171A mutant, agmatine): 3- to 4 fold
- (kcat/Km)app–mutant/(kcat/Km)app–wild–type×100 (AgmNAT S171A mutant; agmatine varied): 2.7%
- increase of Km,app versus wild-type (AgmNAT H206A mutant; agmatine): 1.4 fold
- (kcat/Km)app–mutant/(kcat/Km)app–wild–type×100 (AgmNAT H206A mutant; agmatine varied): 4.7%
